Here are results for twelve molecules from patent publication US20080161232A1, “C5a Receptor Antagonist” (JERINI AG, priority 2005, published 2008).

pEC50, pIC50: −log10 of the molar value. Like-named read-outs stand apart in the source and are kept apart here. Positions of bridges follow the written chain, without caps; N, C: chain ends. Non-standard residues stand in square brackets, D forms with d. Residues, ends and D or L forms follow the SMILES beside them. Hyp = O=C(O)[C@@H]1C[C@@H](O)CN1; dCha = N[C@H](CC1CCCCC1)C(=O)O; Nle = CCCC[C@H](N)C(=O)O; Orn = NCCC[C@H](N)C(=O)O

Data set [1] deals with T1, human C5aR(CD88) (Homo sapiens, UniProt P21730).
T1 construct: expressed in transfected cells; host or cells: rat basophilic leukemia cells (RBL)
T1 sequence (P21730 1-350): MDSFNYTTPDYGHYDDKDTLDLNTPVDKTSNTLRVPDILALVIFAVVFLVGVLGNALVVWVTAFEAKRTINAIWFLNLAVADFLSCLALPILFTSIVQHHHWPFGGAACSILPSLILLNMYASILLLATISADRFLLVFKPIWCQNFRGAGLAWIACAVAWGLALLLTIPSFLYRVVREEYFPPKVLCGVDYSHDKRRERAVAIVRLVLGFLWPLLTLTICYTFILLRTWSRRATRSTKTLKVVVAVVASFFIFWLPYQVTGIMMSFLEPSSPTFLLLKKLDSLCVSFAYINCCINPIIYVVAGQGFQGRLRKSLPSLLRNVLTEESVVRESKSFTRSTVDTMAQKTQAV
The experiment in a line: Determination of EC50-values in an enzyme release assay (agonistic activity). Type of data set: cell-based. Particulars: for agonistic activity (in words): cellular assay, up to a concentration of at least 1430 nM. As for the experimental part: The assay procedure was described by Kohl (Kohl 1997 The Anaphylatoxins. In: Dodds, A. W., Sim, R. B. (Eds.), Complement: A Practical Approach. Oxford, pp. 135-163). Basophilic leukemia cells from rats (RBL), which express the human C5aR(CD88), were cultivated in DMEM with 10% fetal bovine serum, 100 U/ml penicillin, 100 μg/ml streptomycin and 2 mM glutamine (all components of the media from Biochrome, Berlin) to confluence at 37° C. and 10% CO2. The following specifications refer to single cell culture flask having a surface of 75 cm^2. Medium was decanted from cells. Cells were washed with 10 ml PBS (Dulbecco's PBS, Biochrome) and subsequently overlayed with 3 ml Cell Dissociation Solution (CDS, Sigma). Cells were incubated for 1 min at room temperature. Subsequently, CDS was removed and the cells were further incubated for 10-15 min at 37° C. for dissociation. In the assay, 20 μl of the solution containing the compound to be tested were used. This solution should not contain more than 2.8% DMSO. For the dilution process, the compounds were diluted in ⅓ or ½ steps. To 20 μl compound solution 75 μl of the RBL-cells were added, which were treated as follows: after dissociation cells were detached and warmed at 37° C. in 10 ml HAG-CM (20 mM HEPES; 125 mM NaCl, 5 mM KCl, 1 mM CaCl2, 1 mM MgCl2, 0,5 mM Glucose, 0,25% BSA. HEPES-preparation: 2.3 g/l HEPES-salt +2.66 g/l HEPES acid). Cells were counted and centrifuged (200×g, 10 min). The cell pellet was resuspended in preheated HAG-CM (i.e. Hepes-buffer NaCl-glucose-solution with calcium and magnesium), and the cell density was adjusted to 2×10^6 cells/ml. The cells were incubated at 37° C. for 5 min. Per ml cell suspension 27 μl of a cytochalasin B-solution were added (100 μg/ml in DMSO, Sigma). The cells were incubated for further 3 min at 37° C. 75 μl of the cell suspension were added to 20 μl compound solution leading to a volume of 95 μl per well. After incubation of the cells for 10 min at 37° C. 10 μl hrC5a (10.5 nM in HAG-CM, Sigma) per well were added. The cells were incubated for additional 5 min at 37° C. The mtp was then transferred to ice and centrifuged for 3 min at 4° C. with 1200×g. 75 μl of the supernatant were added to 100 μl substrate-solution (2.7 mg/ml p-nitrophenyl-N-acetyl-β-D-glucosaminide (Sigma) in 42.5 mM Na-acetate pH 4.5). The mtp was incubated for further 60 min at 37° C. 75 μl 0.4 M glycine pH 10.4 were added per well. The mtp was transferred into a reader and the absorption at 405 nm was measured. IC50-values were obtained following the equation; y=((A-D)/(1+(x/C)^B))+D.
Determination of EC50-Values in an Enzyme Release Assay
The determination of EC50-values was performed according to the procedure given in example II, with the exception that 30 μl of the test compound need to be mixed with 75 μl of the cell suspension mentioned in example 11. Neither preincubation nor addition of C5a for stimulation of enzyme release is needed.

The target in data set [2] is T1, human C5aR(CD88). The experiment in a line: Determination of the IC50 value in an enzyme release assay (functional assay, antagonistic activity). Particulars: for inhibitory activity (in words): functional assay of example 11, noteworthy = IC50 less than 200 nM. The class given is cell-based.
The nature of data set [3]: Solubility determination for selected C5aR-antagonists. Type of data set: physicochemical. As to conditions: for Solubility in 20 mM HEPES pH 7.4 (% of 200 μM): 20 mM HEPES pH 7.4, 24 h at RT. As for the experimental part: Solubility Determination for Selected C5aR-Antagonists
[…] The undissolved part was removed by centrifugation after 24 h. The UV-absorption of the supernatant was measured and compared to a reference solution of the compound in 60% MeOH.

Data set [4] addresses T2, C5aR (Homo sapiens, UniProt P21730).
T2 construct: measurements with isolated membranes from polymorphonuclear neutrophilic granulocytes (PMN membranes); host or cells: isolated PMN membranes (endogenous receptor)
T2 sequence (P21730 1-350): T1 sequence (P21730 1-350)
Particulars: compound numbers of WO 03/033528; read-out: antagonistic activity, WO 03/033528; cited from earlier work.

In data set [5] the target is T2, C5aR. Particulars: compound numbers of WO 03/033528; read-out: IC50 as a measure for affinity, WO 03/033528; cited from earlier work.
A further data set deals with human PMNs. As to conditions: cellular myeloperoxidase release assay with human PMNs; read-out: IC50 (antagonistic activity), WO 99/00406; cited from earlier work.
Data set [6] in a line: Measurement of the AB-permeability in a TC-7 based assay-system. As to conditions: human. Type of data set: in vitro ADME. As for the experimental part:
Measurement of the AB-Permeability in a TC-7 Based Assay-System The screening compounds are diluted to a 50 μM solution in HBSS-MES (5 mM, pH 6.5) from 10 mM stock solution in 100% DMSO. ^14C-mannitol (approx. 4 μM) is added to the sample. The solution is centrifuged and the supernatant is added to the apical side of the TC-7 cell culture (passage 15, in 24 well transwell plate) to a final DMSO-concentration of 1%. HBSS-HEPES (5 mM, pH 7.4) is placed at the basolateral side. The cells were incubated for 120 min at 37° C.

The target of data set [7] is T2, C5aR. Particulars: PMN membranes, cited from earlier work.
Setting [8] is: agonistic activity, no C5a added, read-out: EC50.
Setting [9] is: antagonistic activity, IC50 group in enzyme release assay, RBL cells expressing human C5aR(CD88), read-out: activity (group).
Setting [10] is: examples of WO 92/12168, read-out: IC50 (binding to C5aR), WO 92/12168.
The mark [11] stands for this setting: examples of WO 90/09162, read-out: IC50 (binding), WO 90/09162.

With `CCCC[C@@H]1NC(=O)[C@H](Cc2c[nH]c3ccccc23)NC(=O)[C@@H](CC2CCCCC2)NC(=O)[C@@H]2CCCN2C(=O)[C@@H](NC(=O)[C@H](Cc2ccccc2)NC(C)=O)CCCNC1=O` [Compound 28, Ac-Phe-[Orn-Pro-cha-Trp-Nle]] (Ac-F[Orn]P[dCha]W[Nle]; lactam 2-C), at human C5aR(CD88) [1] (setting [8]), the pEC50 is under 5.84. Moreover, the pIC50 on human C5aR(CD88) [2] (setting [9]) was 7.30 to 7.70. Moreover, the “inhibitory activity (in words)” value at human C5aR(CD88) [2] is “without significant loss of activity”. Besides, the “inhibitory activity (in words)” value against human C5aR(CD88) [2] (listed as Ac-Phe-[Orn-Pro-cha-Trp-Nle]) is listed as “noteworthy inhibitory activity”. For the same molecule, in data set [3], the “Solubility in 20 mM HEPES pH 7.4 (% of 200 μM)” value (shortened to “Solubility … (% of 200 μM)”) is 22 % of 200 μM and the “solubility in aqueous HEPES buffer (pH 7.4)” value (from here on “solubility … (pH 7.4)”) is listed as 22%.

`CC(=O)N[C@@H](Cc1ccccc1)C(=O)N[C@H]1CCCNC(=O)[C@H](Cc2ccccc2)NC(=O)[C@H](Cc2c[nH]c3ccccc23)NC(=O)[C@@H](CC2CCCCC2)NC(=O)[C@@H]2CCCN2C1=O` [Compound 1, Ac-Phe-[Orn-Pro-cha-Trp-Phe]] (Ac-F[Orn]P[dCha]WF; lactam 2-C): the pEC50 on human C5aR(CD88) [1] (setting [8]) was under 5.84. For the same molecule, the “agonistic activity (in words)” value at human C5aR(CD88) [1] is “pure antagonists”. For the same molecule, the pIC50 at human C5aR(CD88) [2] (setting [9]) is 7.30 to 7.70; at human C5aR(CD88) [2] (functional assay of example 11, values in text, read-out: IC50), 7.64; at C5aR [4] it was 7.55; at C5aR [5], 6.35. In addition, the “inhibitory activity (in words)” value is on record as “without significant loss of activity” on human C5aR(CD88) [2] and “noteworthy inhibitory activity” on human C5aR(CD88) [2] (listed as Ac-Phe-[Orn-Pro-cha-Trp-Phe]). In addition, the “Solubility … (% of 200 μM)” value in data set [3] is given as 8 % of 200 μM. In data set [3], the “solubility … (pH 7.4)” value is given as 8%.

Consider Me-Phe-Lys-Pro-cha-Trp-arg, for which, in the data set on human PMNs, the pIC50 is 7.07.

Turning to `CC(=O)N[C@@H](Cc1ccccc1)C(=O)N[C@H]1CCCNC(=O)[C@H](Cc2ccccc2)NC(=O)[C@H](Cc2c[nH]c3ccccc23)NC(=O)[C@@H](CC2CCCCC2)NC(=O)[C@@H]2C[C@@H](O)CN2C1=O` [Compound 2, Ac-Phe-[Orn-Hyp-cha-Trp-Phe]] (Ac-F[Orn][Hyp][dCha]WF; lactam 2-C), on human C5aR(CD88) [1], the pEC50 was under 5.84 and the “agonistic activity (in words)” value is given as “pure antagonists”. Besides, at human C5aR(CD88) [2] (setting [9]), the pIC50 was 7.30 to 7.70. Moreover, the “inhibitory activity (in words)” value against human C5aR(CD88) [2] was “noteworthy inhibitory activity”. In data set [6] (Caco-2, TC-7 cells, 50 μM, apical pH 6.5, basolateral pH 7.4, 120 min at 37° C.), this molecule yielded a Papp A→B at 120 min, 50 μM of 14.2 ×10⁻⁶ cm/s. Also, the apical-to-basolateral permeability (Papp A→B) at 120 min, 50 μM in data set [6] (Caco-2, values in text) is 14.3 ×10⁻⁶ cm/s. In addition, in data set [3], the “Solubility … (% of 200 μM)” value is reported as 13 % of 200 μM and the “solubility … (pH 7.4)” value was 13%.

Take `CCCC[C@@H]1NC(=O)[C@H](Cc2c[nH]c3ccccc23)NC(=O)[C@@H](CC2CCCCC2)NC(=O)[C@@H]2CCCN2C(=O)[C@@H](NC(=O)[C@@H](N)Cc2ccccc2)CCCNC1=O` [Compound 42, H-Phe-[Orn-Pro-cha-Trp-Nle]] (H-F[Orn]P[dCha]W[Nle]; lactam 2-C): the pEC50 on human C5aR(CD88) [1] (setting [8]) was under 5.84. Besides, the “agonistic activity (in words)” value on human C5aR(CD88) [1] is “pure antagonists”. In addition, the pIC50 on human C5aR(CD88) [2] (setting [9]) was 7.70 to 8.00. In addition, the “inhibitory activity (in words)” value against human C5aR(CD88) [2] is “noteworthy inhibitory activity”. The “Solubility … (% of 200 μM)” value in data set [3] was 45 % of 200 μM.

Take “(N-Methyl)Phe-Lys-Pro-cha-Phe-Phenylbutanoyl”: the pIC50 on C5aR [7] (setting [10]) is 5.59.

In the case of `CC(C)NCC(O)COc1cccc2ccccc12` (stereo not shown) [Propanolol, reference compound], the Papp A→B at 120 min, 50 μM in data set [6] (Caco-2, values in text) came out at 31.1 ×10⁻⁶ cm/s.

As to “Ac-Phe-Lys-Ala-Cha-Ala-Leu-N-Methyl(D)ala-Arg-OH”, the pIC50 at C5aR [7] (setting [11]) was 7.92.

For the molecule `CC(=O)N[C@@H](Cc1ccccc1)C(=O)N[C@H]1CCCNC(=O)[C@H](CCCNC(=N)N)NC(=O)[C@H](Cc2c[nH]c3ccccc23)NC(=O)[C@@H](C)NC(=O)[C@@H]2CCCN2C1=O` [compound 47], the pIC50 was under 5.70 at human C5aR(CD88) [2] (setting [9]) and 4.62 on C5aR [5].

Regarding “(N-Ethyl)Phe-Lys-Ala-Cha-Ala-Leu-N-Methyl(D)ala-Arg-OH”, on C5aR [7] (setting [11]), the pIC50 is 7.96.

With “(N-Methyl)Phe-Lys-Pro-cha-ψ55 CH2—N(CH2CH2C6H5)}-Arg-OH”, on C5aR [7] (setting [10]), the pIC50 was 6.44.

For the molecule `CCCC[C@@H]1NC(=O)[C@H](Cc2c[nH]c3ccccc23)NC(=O)[C@@H](CC2CCCCC2)NC(=O)[C@@H]2CCCN2C(=O)[C@@H](NC(=O)[C@H](Cc2ccccc2)NC(=O)[C@H](CCCCN)NC(C)=O)CCCNC1=O` [Compound 43, Ac-Lys-Phe-[Orn-Pro-cha-Trp-Nle]] (Ac-KF[Orn]P[dCha]W[Nle]; lactam 3-C), the “agonistic activity (in words)” value at human C5aR(CD88) [1] is listed as “pure antagonists”. Besides, the “inhibitory activity (in words)” value on human C5aR(CD88) [2] is given as “noteworthy inhibitory activity”. Moreover, in data set [3], the “Solubility … (% of 200 μM)” value is 93 % of 200 μM.
